From patent publication US20260283162A1, “INDOLEACETIC ACID-ENRICHED ALGAE EXTRACT” (FICOSTERRA, S.L., priority 2023, published 2026)
Values after ≈ are worked out from the molar mass of the structure shown.

Assay: Solubility limit of IAA in water
Assay type: physicochemical
Settings: apparent, from the IAA concentration in the aqueous extract

solubility: ~17 µg/mL (≈ 97 µM)
Compound: O=C(O)Cc1c[nH]c2ccccc12 [IAA, indole-3-acetic acid]
